In PubChem BioAssay (NCI):
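Grown in 96-well plates, cells were treated for 48 hours with each compound at five concentrations. Insufficient inhibition: endpoint recorded as highest concentration tested. The concentration for full growth arrest is given as TGI.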

Legend:
Experiment in all cases: NCI-60 cell line screen, 48 h
786-0 renal = system: 786-0 renal
A498 renal = system: A498 renal
A549 NSCLC = system: A549 NSCLC
ACHN renal = system: ACHN renal
BT-549 breast = system: BT-549 breast
CAKI-1 renal = system: CAKI-1 renal
CCRF-CEM leukemia = system: CCRF-CEM leukemia
COLO 205 colon = system: COLO 205 colon
DU-145 prostate = system: DU-145 prostate
EKVX NSCLC = system: EKVX NSCLC
HCC-2998 colon = system: HCC-2998 colon
HCT-116 colon = system: HCT-116 colon
HCT-15 colon = system: HCT-15 colon
HL-60(TB) leukemia = system: HL-60(TB) leukemia
HOP-62 NSCLC = system: HOP-62 NSCLC
HOP-92 NSCLC = system: HOP-92 NSCLC
HS 578T breast = system: HS 578T breast
HT29 colon = system: HT29 colon
IGROV1 ovarian = system: IGROV1 ovarian
K-562 leukemia = system: K-562 leukemia
KM12 colon = system: KM12 colon
LOX IMVI melanoma = system: LOX IMVI melanoma
M14 melanoma = system: M14 melanoma
MALME-3M melanoma = system: MALME-3M melanoma
MCF7 breast = system: MCF7 breast
MDA-MB-231 breast = system: MDA-MB-231 breast
MDA-MB-435 = system: MDA-MB-435
MDA-N = system: MDA-N
MOLT-4 leukemia = system: MOLT-4 leukemia
NCI-H226 lung = system: NCI-H226 lung
NCI-H23 lung = system: NCI-H23 lung
NCI-H460 lung = system: NCI-H460 lung
NCI-H522 lung = system: NCI-H522 lung
NCI/ADR-RES ovarian = system: NCI/ADR-RES ovarian
OVCAR-3 ovarian = system: OVCAR-3 ovarian
OVCAR-4 ovarian = system: OVCAR-4 ovarian
OVCAR-5 ovarian = system: OVCAR-5 ovarian
OVCAR-8 ovarian = system: OVCAR-8 ovarian
PC-3 prostate = system: PC-3 prostate
RPMI-8226 leukemia = system: RPMI-8226 leukemia
RXF 393 renal = system: RXF 393 renal
SF-268 CNS = system: SF-268 CNS
SF-295 CNS = system: SF-295 CNS
SF-539 CNS = system: SF-539 CNS
SK-MEL-28 melanoma = system: SK-MEL-28 melanoma
SK-MEL-5 melanoma = system: SK-MEL-5 melanoma
SN12C renal = system: SN12C renal
SNB-19 CNS = system: SNB-19 CNS
SNB-75 CNS = system: SNB-75 CNS
SR leukemia = system: SR leukemia
SW-620 colon = system: SW-620 colon
T-47D breast = system: T-47D breast
TK-10 renal = system: TK-10 renal
U251 CNS = system: U251 CNS
UACC-257 melanoma = system: UACC-257 melanoma
UO-31 renal = system: UO-31 renal
SK-MEL-2 melanoma = system: SK-MEL-2 melanoma
SK-OV-3 ovarian = system: SK-OV-3 ovarian
UACC-62 melanoma = system: UACC-62 melanoma

Measured: TGI

Cc1n[nH]c(=O)n1-c1cccnc1
not listed: SK-MEL-2 melanoma | SK-OV-3 ovarian | UACC-62 melanoma
> 100 µM: all other assays above

CC(C)(C)N/N=C(\C(=O)Nc1ccc([N+](=O)[O-])cc1[N+](=O)[O-])c1nc2ccc([N+](=O)[O-])cc2[nH]c1=O
not listed: HOP-62 NSCLC | TK-10 renal
> 100 µM: all other assays above
